Reference: patent US8748108B2, “Biomarkers for identifying patient classes” (AbbVie Inc., priority 2006, dated 2014)

What was measured:
[1] = tested on: relapsed or refractory SCLC; test: phase 2 study, efficacy (RECIST, PFS, OS); assay type: in vivo, human
From the text: Eligible candidates for the phase 2 portion of this study (NCT00445198) were adults with histologically or cytologically confirmed SCLC, extensive stage, with progressive disease after at least one prior chemotherapy regimen (any number of prior therapies were allowed). […] Patients were excluded if they had underlying or predisposing condition of bleeding (history of non-chemotherapy induced thrombocytopenia with bleeding within 1 year, active peptic ulcer or hemorrhagic esophagitis/gastritis, active immune thrombocytopenic purpura, etc.). This study was conducted according to the Declaration of Helsinki and with approval from Institutional Review Boards of all participating study sites. All participants provided written informed consent before participating. The phase 2 component of this clinical trial was an open-label, single arm study of patients with recurrent and progressive SCLC after at least one prior therapy. Based on the dose and schedule determined in phase 1 (Example 3), patients were treated with navitoclax 150 mg daily for 1 week, and 325 mg daily thereafter. Cycle duration was defined as 21 days. Subjects could remain on therapy indefinitely, until disease progression or intolerable toxicity. […] New guidelines to evaluate the response to treatment in solid tumors. European Organization for Research and Treatment of Cancer, National Cancer Institute of the United States, National Cancer Institute of Canada. […] Additional efficacy variables included PFS and OS. All subjects enrolled were included in the analyses. Descriptive statistics were used to summarize demographic variables. Progression free survival and overall survival were computed using Kaplan-Meier methodology and 95% confidence intervals were provided. Progression free survival (PFS) was defined as the number of days from the date the subject started the study drug to the date the subject experienced an event of disease progression, or if progression was not experienced, then the date of death if the death occurred within 42 days (length of time between tumor assessments). Overall survival (OS) was defined as the number of days from the date the subject started the study drug to the date of the subject's death. […] Correlations between median BCL2 copy number and pro-GRP were performed by the Pearson correlation; M30 and CTC change from baseline comparisons among Pro-GRP groups were performed by one-way ANOVA using the JMP 8.0 statistical software. Optimized thresholds for the tumor markers were obtained using BATTing (Bootstrapping and Aggregating Thresholds from Trees) method (See, […]., Bagging Predictors. Machine Learning 26:123-140, 1996, fully incorporated herein by reference). Briefly, BATTing uses a tree-based model for threshold estimation. However, a single tree may be unstable and not robust enough against small perturbations in the distribution of the data. In addition, single tree-based models are known be prone to overfitting (that is, it is over-specified for training data) and have poor prediction power. Those issues are addressed in BATTing by aggregating the thresholds from multiple trees to get a more robust estimate. Each tree is built using a bootstrap random sample drawn from the original population and provides its own cutoff. The final estimate of the threshold is calculated as the median from the distribution of cutoffs generated from the multiple trees. This procedure was implemented using the R statistical software (available online from the R project). Several exploratory correlative biomarkers were included in this study, including both CTC enumeration and plasma protein markers associated with small cell lung cancer. The biomarker analysis included all phase II patients and, to increase the sample size, patients with SCLC and those dosed with >325 mg navitoclax on the phase I portion of this study were also included in the analysis. […]

[2] = tested on: M30; test: phase I study, serum M30 (caspase-cleaved CK18); assay type: in vivo, human
Experimental: Blood samples for circulating tumor cells (CTCs) were collected at screening, C1D14, C2D14, and at the end of study treatment. Samples for the plasma marker Pro-GRP were collected at screening, C1D14, C2D14, and at the end of study. Samples for serum marker M30 were collected at screening, pre-dose, 6 and 24 hours post-dose on C1D-3 (for 14/21 day dosing) or lead-in day 2 for 21/21 day dosing). Samples were also collected on C1D14; pre-dose and 6 hours post-dose on C2D1; C2D14; end of cycle 4; and every 3rd cycle thereafter and at the final visit for all subjects.
The CTC were analyzed via the CellSearch system (Veridex, Raritan, N.J.). […] Pro-GRP was measured using ARCHITECT ELISA kits (Abbott Diagnostics, Abbott Park, Ill.). Serum samples were analyzed for M30 and M65 (Peviva) using previously described assays validated to good clinical laboratory practice (Cummings J, Ward T H, LaCasse E, et al: Validation of pharmacodynamic assays to evaluate the clinical efficacy of an antisense compound (AEG 35156) targeted to the X-linked inhibitor of apoptosis protein XIAP. Br J Cancer 92:532-8, 2005; and Cummings J, Ranson M, Lacasse E, et al: Method validation and preliminary qualification of pharmacodynamic biomarkers employed to evaluate the clinical efficacy of an antisense compound (AEG35156) targeted to the X-linked inhibitor of apoptosis protein XIAP. […]

[3] = baseline CYFRA 21.1 above 2.3 ng/ml
[4] = baseline CYFRA 21.1 below 2.3 ng/ml

CC1(C)CCC(c2ccc(Cl)cc2)=C(CN2CCN(c3ccc(C(=O)NS(=O)(=O)c4ccc(NC(CCN5CCOCC5)CSc5ccccc5)c(S(=O)(=O)C(F)(F)F)c4)cc3)CC2)C1 (stereo in doubt) [navitoclax, N-(4-(4-(2-(4-chlorophenyl)-5,5-dimethyl-1-cyclohex-1-en-1-yl)methyl)pip-erazin-1-yl)benzoyl)-4-(((1R)-3-(morpholin-4-yl)-1-((phenylsulfanyl)methyl)propyl)amino)-3-((trifluoromethyl)sulfonyl)benzenesulfonamide]
Median OS Above threshold ([1]; baseline CTC above 12/7.5 ml): 67 (17) D | Median PFS Above threshold ([1]; baseline CTC above 12/7.5 ml): 46 (15) D | Median PFS Below threshold ([1]; baseline CTC below 12/7.5 ml): 63 (14) D | Median OS Above threshold [1, 3]: 67 (19) D | Median PFS Above threshold [1, 3]: 44 (19) D | Median OS Below threshold [1, 4]: 242 (20) D | Median PFS Below threshold [1, 4]: 53 (20) D | Median OS Above threshold ([1]; baseline NSE above 15 ng/ml): 72 (24) D | Median PFS Above threshold ([1]; baseline NSE above 15 ng/ml): 44 (24) D | Median OS Below threshold ([1]; baseline NSE below 15 ng/ml): 242 (15) D | Median PFS Below threshold ([1]; baseline NSE below 15 ng/ml): 55 (15) D | median OS ([1]; patients above thresholds for both NSE and CYFRA (poor prognosis), n=15): 61 days | median PFS ([1]; patients above thresholds for both NSE and CYFRA (poor prognosis), n=16): 41 days | median OS ([1]; patients not above both NSE and CYFRA thresholds, n=18): 242 days | median PFS ([1]; patients not above both NSE and CYFRA thresholds, n=23): 55 days | Median progression-free survival (PFS) ([1]; phase 2, 39 patients): 1.5 months | best response of disease progression (PD) ([1]; phase 2, 39 patients): 41% | confirmed partial response (PR) ([1]; phase 2, 39 patients): 2.6% | inevaluable for response ([1]; phase 2, 39 patients): 33.3% | median overall survival (OS) ([1]; phase 2, 39 patients): 3.2 months | stable disease (SD) as best response ([1]; phase 2, 39 patients): 23.1% | Best response PD, N (%) ([1]; phase 2, N = 39): 16 (41.0) N (%) | Best response PR, N (%) ([1]; phase 2, N = 39): 1 (2.6) N (%) | Best response SD, N (%) ([1]; phase 2, N = 39): 9 (23.1) N (%) | Median OS, mo (95% CI) ([1]; phase 2, N = 39): 3.2 (2.3, 8.1) mo | ORR, % (95% CI) ([1]; phase 2, N = 39): 2.6 (0.1, 13.5) % | Median PFS, mo (95% CI) ([1]; phase 2, N = 39, 150 mg daily 1 week then 325 mg daily): 1.5 (1.4, 1.7) mo | Best response inevaluable, N (%) ([1]; phase 2, N = 39, baseline tumor data only): 13 (33.3) N (%) | time of rise in M30 following the first dose ([2]; in most instances): ≤ 6 h | circulating M30 ([2]; serum, cycle 1, post first exposure): dose-dependent transient increase in circulating M30
